Measurements published in PubChem BioAssay AID1963861 (Molecular Pharmacology Branch, DTP, NCI, 2024).

Test system: 885724-159-R-J1-PDC KRAS PDC multicell spheroid viability
Test: Anticancer human tumor 885724-159-R-J1-PDC patient-derived pancreatic adenocarcinoma cell line growth inhibition [KRAS2]
Settings: for IC50: curve of first compound; for viability, T/C: stronger effect = lower value
Method in brief: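 Combination screen of spheroid viability in tumor-cell co-cultures with endothelial (HUVEC) and mesenchymal stem cell stroma. Each agent was tested in half-log dilutions, topping at clinical Cmax or at 10 microM without a known Cmax.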

[1] = second compound 0.0316 µM, first compound 0.0316 µM
[2] = second compound 0.0316 µM, first compound 0.1 µM
[3] = second compound 0.0316 µM, first compound 0.316 µM
[4] = second compound 0.0316 µM, first compound 1 µM
[5] = second compound 0.0316 µM, first compound 3.16 µM
[6] = second compound 0.0316 µM, first compound 10 µM
[7] = second compound 0.1 µM, first compound 0.0316 µM
[8] = second compound 0.1 µM, first compound 0.1 µM
[9] = second compound 0.1 µM, first compound 0.316 µM
[10] = second compound 0.1 µM, first compound 1 µM
[11] = second compound 0.1 µM, first compound 3.16 µM
[12] = second compound 0.1 µM, first compound 10 µM
[13] = second compound 0.316 µM, first compound 0.0316 µM
[14] = second compound 0.316 µM, first compound 0.1 µM
[15] = second compound 0.316 µM, first compound 0.316 µM
[16] = second compound 0.316 µM, first compound 1 µM
[17] = second compound 0.316 µM, first compound 3.16 µM
[18] = second compound 0.316 µM, first compound 10 µM
[19] = second compound 1 µM, first compound 0.0316 µM
[20] = second compound 1 µM, first compound 0.1 µM
[21] = second compound 1 µM, first compound 0.316 µM
[22] = second compound 1 µM, first compound 1 µM
[23] = second compound 1 µM, first compound 3.16 µM
[24] = second compound 1 µM, first compound 10 µM
[25] = second compound 3.16 µM, first compound 0.0316 µM
[26] = second compound 3.16 µM, first compound 0.1 µM
[27] = second compound 3.16 µM, first compound 0.316 µM
[28] = second compound 3.16 µM, first compound 1 µM
[29] = second compound 3.16 µM, first compound 3.16 µM
[30] = second compound 3.16 µM, first compound 10 µM
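Also: spheroids exposed to agents for 7 days before readout.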

Compound | IC50 (second compound 0.0316 µM) [µM] | IC50 (second compound 0.1 µM) [µM] | IC50 (second compound 0.316 µM) [µM] | IC50 (second compound 1 µM) [µM] | IC50 (second compound 3.16 µM) [µM] | viability, T/C [1] [%] | viability, T/C [2] [%] | viability, T/C [3] [%] | viability, T/C [4] [%] | viability, T/C [5] [%] | viability, T/C [6] [%] | viability, T/C [7] [%] | viability, T/C [8] [%] | viability, T/C [9] [%] | viability, T/C [10] [%] | viability, T/C [11] [%] | viability, T/C [12] [%] | viability, T/C [13] [%] | viability, T/C [14] [%] | viability, T/C [15] [%] | further results
COC(=O)c1ccc2c(C(=Nc3ccc(N(C)C(=O)CN4CCN(C)CC4)cc3)c3ccccc3)c(O)[nH]c2c1 + C=CC(=O)N1CCN(c2nc(OCC3CCCN3C)nc3c2CCN(c2cccc4cccc(C)c24)C3)CC1CC#N | 2.08 | 1.86 | 1.71 | 1.68 | 0.431 | 100 | 104 | 101 | 94.5 | 24.4 | 0.81 | 100 | 97 | 98.5 | 85.1 | 19.9 | 0.65 | 100 | 100 | 91.5 | viability, T/C [16]: 83.8%; viability, T/C [17]: 11.3%; viability, T/C [18]: 0.77%; viability, T/C [19]: 90.4%; viability, T/C [20]: 91.4%; viability, T/C [21]: 85.9%; viability, T/C [22]: 84.5%; viability, T/C [23]: 7.97%; viability, T/C [24]: 0.43%; viability, T/C [25]: 58.4%; viability, T/C [26]: 51.1%; viability, T/C [27]: 54.1%; viability, T/C [28]: 38%; viability, T/C [29]: 1.11%; viability, T/C [30]: 0.32%
COc1cc(Nc2ncc3c(n2)-c2ccc(Cl)cc2C(c2c(F)cccc2OC)=NC3)ccc1C(=O)O + C=CC(=O)N1CCN(c2nc(OCC3CCCN3C)nc3c2CCN(c2cccc4cccc(C)c24)C3)CC1CC#N | > 10 | > 10 | > 10 | > 10 | < 0.0316 | 103 | 92.4 | 87.9 | 92.4 | 93.1 | 105 | 100 | 88.8 | 88.9 | 90.4 | 99.4 | 100 | 89.2 | 84 | 83.6 | viability, T/C [16]: 84.2%; viability, T/C [17]: 76.6%; viability, T/C [18]: 89%; viability, T/C [19]: 80%; viability, T/C [20]: 76.9%; viability, T/C [21]: 77.8%; viability, T/C [22]: 75.1%; viability, T/C [23]: 75.7%; viability, T/C [24]: 78.2%; viability, T/C [25]: 46.9%; viability, T/C [26]: 46.3%; viability, T/C [27]: 42.3%; viability, T/C [28]: 54.5%; viability, T/C [29]: 60%; viability, T/C [30]: 44.6%
O=C(c1cc(Cc2n[nH]c(=O)c3ccccc23)ccc1F)N1CCN(C(=O)C2CC2)CC1 + C=CC(=O)N1CCN(c2nc(OCC3CCCN3C)nc3c2CCN(c2cccc4cccc(C)c24)C3)CC1CC#N | > 10 | > 10 | > 10 | > 10 | 4.94 | 127 | 120 | 119 | 119 | 112 | 96.7 | 122 | 118 | 117 | 109 | 104 | 93 | 111 | 115 | 113 | viability, T/C [16]: 108%; viability, T/C [17]: 99%; viability, T/C [18]: 101%; viability, T/C [19]: 112%; viability, T/C [20]: 116%; viability, T/C [21]: 106%; viability, T/C [22]: 108%; viability, T/C [23]: 108%; viability, T/C [24]: 89%; viability, T/C [25]: 66.9%; viability, T/C [26]: 65%; viability, T/C [27]: 60.5%; viability, T/C [28]: 58%; viability, T/C [29]: 58.3%; viability, T/C [30]: 40.8%
